Laboratory results published in the supplement of paper PMC10307832.

What was measured:
Test in all cases: relative viability (nuclei count vs DMSO), 5 days (fraction); higher = more cells survive
Ibrutinib + Navitoclax = compound: C=CC(=O)N1CCC[C@@H](n2nc(-c3ccc(Oc4ccccc4)cc3)c3c(N)ncnc32)C1 [Ibrutinib] + CC1(C)CCC(c2ccc(Cl)cc2)=C(CN2CCN(c3ccc(C(=O)NS(=O)(=O)c4ccc(N[C@H](CCN5CCOCC5)CSc5ccccc5)c(S(=O)(=O)C(F)(F)F)c4)cc3)CC2)C1 [Navitoclax] (partner 0.5 µM)
In short: (§1)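 A single step with final 0.05% Triton X-100, 1% formaldehyde and 1 ug/ml Hoechst fixed the cells and stained nuclei 5 days after treatment. Lung cancer cell lines in 1536-well plates had been treated by pin tool the day after seeding with one drug alone or a fixed anchor-drug dose plus five library-drug doses (not always all listed) in √10 steps, and nuclei were counted on 4× images. Relative viability is the ratio of nuclei in treated wells to nuclei in vehicle wells, taken as the median of duplicate plates.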

Ibrutinib + Alpelisib = compound: C=CC(=O)N1CCC[C@@H](n2nc(-c3ccc(Oc4ccccc4)cc3)c3c(N)ncnc32)C1 [Ibrutinib] + Cc1nc(NC(=O)N2CCC[C@H]2C(N)=O)sc1-c1ccnc(C(C)(C)C(F)(F)F)c1 [Alpelisib] (partner 2 µM)
In short: as §1

BMX-IN-1 + Olaparib = compound: C=CC(=O)Nc1cc(-n2c(=O)ccc3cnc4ccc(-c5ccc(NS(C)(=O)=O)cc5)cc4c32)ccc1C [BMX-IN-1] + O=C(c1cc(Cc2n[nH]c(=O)c3ccccc23)ccc1F)N1CCN(C(=O)C2CC2)CC1 [Olaparib] (partner 8 µM)
In short: as §1

BMX-IN-1 + Vorinostat = compound: C=CC(=O)Nc1cc(-n2c(=O)ccc3cnc4ccc(-c5ccc(NS(C)(=O)=O)cc5)cc4c32)ccc1C [BMX-IN-1] + O=C(CCCCCCC(=O)Nc1ccccc1)NO [Vorinostat] (partner 1 µM)
In short: as §1

Cell Line: EMC-BAC-2
- relative viability (Ibrutinib + Navitoclax; first compound 0.005 µM): 1.16
- relative viability (Ibrutinib + Navitoclax; first compound 0.01581 µM): 1.06
- relative viability (Ibrutinib + Navitoclax; first compound 0.05 µM): 1.01
- relative viability (Ibrutinib + Navitoclax; first compound 0.1581 µM): 1.16
- relative viability (Ibrutinib + Navitoclax; first compound 0.5 µM): 1.02
- relative viability (Ibrutinib + Alpelisib; first compound 0.005 µM): 0.728
- relative viability (Ibrutinib + Alpelisib; first compound 0.01581 µM): 0.697
- relative viability (Ibrutinib + Alpelisib; first compound 0.05 µM): 0.75
- relative viability (Ibrutinib + Alpelisib; first compound 0.1581 µM): 0.741
- relative viability (Ibrutinib + Alpelisib; first compound 0.5 µM): 0.547
- relative viability (BMX-IN-1 + Olaparib; first compound 0.02 µM): 0.514
- relative viability (BMX-IN-1 + Olaparib; first compound 0.2 µM): 0.49
- relative viability (BMX-IN-1 + Olaparib; first compound 0.6325 µM): 0.512
- relative viability (BMX-IN-1 + Olaparib; first compound 2 µM): 0.494
- relative viability (BMX-IN-1 + Vorinostat; first compound 0.02 µM): 0.497
- relative viability (BMX-IN-1 + Vorinostat; first compound 0.2 µM): 0.58
- relative viability (BMX-IN-1 + Vorinostat; first compound 0.6325 µM): 0.414
- relative viability (BMX-IN-1 + Vorinostat; first compound 2 µM): 0.45

Cell Line: NCI-H520
- relative viability (Ibrutinib + Navitoclax; first compound 0.005 µM): 1.02
- relative viability (Ibrutinib + Navitoclax; first compound 0.01581 µM): 1.08
- relative viability (Ibrutinib + Navitoclax; first compound 0.05 µM): 1.21
- relative viability (Ibrutinib + Navitoclax; first compound 0.1581 µM): 1.13
- relative viability (Ibrutinib + Navitoclax; first compound 0.5 µM): 0.959
- relative viability (Ibrutinib + Alpelisib; first compound 0.005 µM): 0.892
- relative viability (Ibrutinib + Alpelisib; first compound 0.01581 µM): 0.797
- relative viability (Ibrutinib + Alpelisib; first compound 0.05 µM): 1.04
- relative viability (Ibrutinib + Alpelisib; first compound 0.1581 µM): 1.09
- relative viability (Ibrutinib + Alpelisib; first compound 0.5 µM): 0.759
- relative viability (BMX-IN-1 + Olaparib; first compound 0.02 µM): 0.323
- relative viability (BMX-IN-1 + Olaparib; first compound 0.2 µM): 0.368
- relative viability (BMX-IN-1 + Olaparib; first compound 0.6325 µM): 0.301
- relative viability (BMX-IN-1 + Olaparib; first compound 2 µM): 0.273
- relative viability (BMX-IN-1 + Vorinostat; first compound 0.02 µM): 0.8
- relative viability (BMX-IN-1 + Vorinostat; first compound 0.2 µM): 0.718
- relative viability (BMX-IN-1 + Vorinostat; first compound 0.6325 µM): 0.666
- relative viability (BMX-IN-1 + Vorinostat; first compound 2 µM): 0.696

Cell Line: NCI-H2170
- relative viability (Ibrutinib + Navitoclax; first compound 0.005 µM): 0.377
- relative viability (Ibrutinib + Navitoclax; first compound 0.01581 µM): 0.343
- relative viability (Ibrutinib + Navitoclax; first compound 0.05 µM): 0.235
- relative viability (Ibrutinib + Navitoclax; first compound 0.1581 µM): 0.527
- relative viability (Ibrutinib + Navitoclax; first compound 0.5 µM): 0.195
- relative viability (Ibrutinib + Alpelisib; first compound 0.005 µM): 0.728
- relative viability (Ibrutinib + Alpelisib; first compound 0.01581 µM): 0.362
- relative viability (Ibrutinib + Alpelisib; first compound 0.05 µM): 0.278
- relative viability (Ibrutinib + Alpelisib; first compound 0.1581 µM): 0.773
- relative viability (Ibrutinib + Alpelisib; first compound 0.5 µM): 0.231
- relative viability (BMX-IN-1 + Olaparib; first compound 0.02 µM): 0.587
- relative viability (BMX-IN-1 + Olaparib; first compound 0.2 µM): 0.677
- relative viability (BMX-IN-1 + Olaparib; first compound 0.6325 µM): 0.717
- relative viability (BMX-IN-1 + Olaparib; first compound 2 µM): 0.624
- relative viability (BMX-IN-1 + Vorinostat; first compound 0.02 µM): 0.724
- relative viability (BMX-IN-1 + Vorinostat; first compound 0.2 µM): 1.06
- relative viability (BMX-IN-1 + Vorinostat; first compound 0.6325 µM): 0.79
- relative viability (BMX-IN-1 + Vorinostat; first compound 2 µM): 0.849

Cell Line: A-427
- relative viability (Ibrutinib + Navitoclax; first compound 0.005 µM): 0.861
- relative viability (Ibrutinib + Navitoclax; first compound 0.01581 µM): 0.923
- relative viability (Ibrutinib + Navitoclax; first compound 0.05 µM): 0.985
- relative viability (Ibrutinib + Navitoclax; first compound 0.1581 µM): 0.98
- relative viability (Ibrutinib + Navitoclax; first compound 0.5 µM): 0.92
- relative viability (Ibrutinib + Alpelisib; first compound 0.005 µM): 1.06
- relative viability (Ibrutinib + Alpelisib; first compound 0.01581 µM): 1.08
- relative viability (Ibrutinib + Alpelisib; first compound 0.05 µM): 1.11
- relative viability (Ibrutinib + Alpelisib; first compound 0.1581 µM): 1.09
- relative viability (Ibrutinib + Alpelisib; first compound 0.5 µM): 1.14
- relative viability (BMX-IN-1 + Olaparib; first compound 0.02 µM): 0.709
- relative viability (BMX-IN-1 + Olaparib; first compound 0.2 µM): 0.766
- relative viability (BMX-IN-1 + Olaparib; first compound 0.6325 µM): 0.979
- relative viability (BMX-IN-1 + Olaparib; first compound 2 µM): 0.783
- relative viability (BMX-IN-1 + Vorinostat; first compound 0.02 µM): 0.841
- relative viability (BMX-IN-1 + Vorinostat; first compound 0.2 µM): 0.897
- relative viability (BMX-IN-1 + Vorinostat; first compound 0.6325 µM): 0.931
- relative viability (BMX-IN-1 + Vorinostat; first compound 2 µM): 0.856

Cell Line: LC-2-ad
- relative viability (Ibrutinib + Navitoclax; first compound 0.005 µM): 0.408
- relative viability (Ibrutinib + Navitoclax; first compound 0.01581 µM): 0.362
- relative viability (Ibrutinib + Navitoclax; first compound 0.05 µM): 0.535
- relative viability (Ibrutinib + Navitoclax; first compound 0.1581 µM): 0.477
- relative viability (Ibrutinib + Navitoclax; first compound 0.5 µM): 0.402
- relative viability (Ibrutinib + Alpelisib; first compound 0.005 µM): 0.874
- relative viability (Ibrutinib + Alpelisib; first compound 0.01581 µM): 0.944
- relative viability (Ibrutinib + Alpelisib; first compound 0.05 µM): 0.936
- relative viability (Ibrutinib + Alpelisib; first compound 0.1581 µM): 0.836
- relative viability (Ibrutinib + Alpelisib; first compound 0.5 µM): 0.758
- relative viability (BMX-IN-1 + Olaparib; first compound 0.02 µM): 0.829
- relative viability (BMX-IN-1 + Olaparib; first compound 0.2 µM): 0.848
- relative viability (BMX-IN-1 + Olaparib; first compound 0.6325 µM): 0.674
- relative viability (BMX-IN-1 + Olaparib; first compound 2 µM): 0.733
- relative viability (BMX-IN-1 + Vorinostat; first compound 0.02 µM): 0.74
- relative viability (BMX-IN-1 + Vorinostat; first compound 0.2 µM): 0.766
- relative viability (BMX-IN-1 + Vorinostat; first compound 0.6325 µM): 0.674
- relative viability (BMX-IN-1 + Vorinostat; first compound 2 µM): 0.783
